# Assay results as given in ChEMBL document CHEMBL1152732, “Pharmacodynamics and pharmacokinetics studies of phenoxazinium derivatives for antimalarial agent” (Bioorg Med Chem, 2009).
# Activity calls are given as the source filed them. The rule behind the calls is not given here.
# Tests used:
# Plasmodium berghei [1] = assay: Antimalarial activity as mean survival days against Plasmodium berghei NK65 infected ICR mice (Mus musculus) at 10 mg/kg/day intraperitoneal dose 24 hrs post infection; type: functional
# Plasmodium berghei [2] = assay: Antimalarial activity as reduced parasitaemia against Plasmodium berghei NK65 infected ICR mice (Mus musculus) at 30 mg/kg/day peroral dose at day 4; type: functional; set-up: scale not given: the % may be the effect or the level left; conditions: route oral
# Plasmodium berghei [3] = assay: Antimalarial activity as mean survival days against Plasmodium berghei NK65 infected ICR mice (Mus musculus) at 30 mg/kg/day peroral dose; type: functional; conditions: route oral
# Plasmodium berghei [4] = assay: Antimalarial activity at day 4 against Plasmodium berghei NK65 infected ICR mice (Mus musculus) as reduced parasitaemia at 10 mg/kg/day intraperitoneal dose 24 hrs post infection; type: functional; set-up: scale not given: the % may be the effect or the level left
# Plasmodium berghei [5] = assay: Antimalarial activity as reduced parasitaemia against Plasmodium berghei NK65 infected ICR mice (Mus musculus) at 20 mg/kg/day intraperitoneal dose at day 4; type: functional; set-up: scale not given: the % may be the effect or the level left
# Plasmodium berghei [6] = assay: Antimalarial activity as reduced parasitaemia at day 4 against Plasmodium berghei NK65 infected ICR mice (Mus musculus) at 100 mg/kg/day peroral dose for 3 days; type: functional; set-up: scale not given: the % may be the effect or the level left; conditions: route oral
# Plasmodium berghei [7] = assay: Antimalarial activity as mean survival days against Plasmodium berghei NK65 infected ICR mice (Mus musculus) at 100 mg/kg/day peroral dose at day 4; type: functional; conditions: route oral
# Plasmodium berghei [8] = assay: Antimalarial activity as mean survival days against Plasmodium berghei NK65 infected ICR mice (Mus musculus) at 20 mg/kg/day intraperitoneal dose; type: functional
# Mus musculus = assay: Toxicity in Plasmodium berghei NK65-infected ICR mice (Mus musculus) assessed as death at 20 mg/kg/day, intraperitoneally administered 24 hrs after infection for 3 consecutive days measured 4 days postinfection; type: organism-based; set-up: route intraperitoneal; conditions: in vivo, ip, 96 h
# Plasmodium berghei [9] = assay: Antimalarial activity as reduced parasitaemia against Plasmodium berghei NK65 infected ICR mice (Mus musculus) at 4 mg/kg intravenous dose at day 4; type: functional; set-up: scale not given: the % may be the effect or the level left
# Plasmodium falciparum = assay: Antimalarial activity against chloroquine and pyrimethamine-resistant Plasmodium falciparum K1; type: functional, organism-based
# Rattus norvegicus [10] = assay: Apparent volume of distribution in Wistar rat at 4 mg/kg, po administered as single dose; type: ADME, organism-based; set-up: dose 4 mg/kg, route oral; conditions: in vivo
# [11] = Half life in Wistar rat at 30 mg/kg, po administered as single dose; type: ADME, organism-based; set-up: dose 30 mg/kg, route oral; conditions: in vivo
# [12] = Selectivity index, ratio of IC50 for rat L6 cells to IC50 for chloroquine and pyrimethamine-resistant Plasmodium falciparum K1; type: toxicity, cell-based; conditions: read-out: Ratio IC50
# Plasmodium berghei [13] = assay: Antimalarial activity recurrence of parasitaemia in Plasmodium berghei NK65 infected ICR mice (Mus musculus) at 4 mg/kg/day intravenous dose for 3 days; type: functional, organism-based
# [14] = Tmax in Wistar rat at 30 mg/kg, po administered as single dose; type: ADME, organism-based; set-up: dose 30 mg/kg, route oral; conditions: in vivo
# [15] = Half life in Wistar rat at 4 mg/kg, po administered as single dose; type: ADME, organism-based; set-up: dose 4 mg/kg, route oral; conditions: in vivo
# [16] = Plasma concentration in fasted Wistar rat at 30 mg/kg, po administered as single dose after 1 hr by HPLC; type: ADME, organism-based; set-up: dose 30 mg/kg, route oral
# [17] = Oral bioavailability in Wistar rat at 30 mg/kg administered as single dose; type: ADME, organism-based; conditions: in vivo
# [18] = Half life in Wistar rat at 4 mg/kg, iv administered as single dose; type: ADME, organism-based; set-up: dose 4 mg/kg, route intravenous; conditions: in vivo
# Plasmodium berghei [19] = assay: Antimalarial activity as reduced parasitaemia against Plasmodium berghei NK65 infected ICR mice (Mus musculus) at 4 mg/kg peroral dose at day 4; type: functional; set-up: scale not given: the % may be the effect or the level left; conditions: route oral
# [20] = Clearance in Wistar rat at 30 mg/kg, po administered as single dose; type: ADME, organism-based; set-up: dose 30 mg/kg, route oral; conditions: in vivo
# [21] = Plasma concentration in Wistar rat at 4 mg/kg, iv administered as single dose after 10 mins by HPLC; type: ADME, organism-based; set-up: dose 4 mg/kg, route intravenous
# Plasmodium berghei [22] = assay: (§1) Antimalarial activity as reduced parasitaemia at day 6 against Plasmodium berghei NK65 infected ICR mice (Mus musculus) at 30 mg/kg/day peroral dose for 3 days; type: functional, organism-based
# Plasmodium berghei [23] = assay: Antimalarial activity as reduced parasitaemia at day 7 against Plasmodium berghei NK65 infected ICR mice (Mus musculus) at 30 mg/kg/day peroral dose for 3 days; type: functional, organism-based
# [24] = Plasma concentration in fasted Wistar rat at 30 mg/kg/day, po after 49 hrs by HPLC; type: ADME, organism-based; set-up: route oral
# Plasmodium berghei [25] = assay: Antimalarial activity as recurrence of parasitaemia at day 5 in Plasmodium berghei NK65 infected ICR mice (Mus musculus) at 4 mg/kg/day peroral dose for 3 days; type: functional, organism-based
# Rattus norvegicus [26] = assay: Apparent volume of distribution in Wistar rat at 30 mg/kg, po administered as single dose; type: ADME, organism-based; set-up: dose 30 mg/kg, route oral; conditions: in vivo
# [27] = Plasma concentration in fasted Wistar rat at 4 mg/kg, po administered as single dose after 1 hr by HPLC; type: ADME, organism-based; set-up: dose 4 mg/kg, route oral
# [28] = Plasma concentration in Wistar rat at 4 mg/kg, iv administered as single dose after 4 hrs by HPLC; type: ADME, organism-based; set-up: dose 4 mg/kg, route intravenous
# [29] = Plasma concentration in fasted Wistar rat at 30 mg/kg, po after 1 hr by HPLC; type: ADME, organism-based; set-up: dose 30 mg/kg, route oral
# [30] = Oral bioavailability in Wistar rat at 4 mg/kg administered as single dose; type: ADME, organism-based; conditions: in vivo
# [31] = Apparent volume of distribution in Wistar rat at 4 mg/kg, iv administered as single dose; type: ADME, organism-based; set-up: dose 4 mg/kg, route intravenous; conditions: in vivo, read-out: Vz
# [32] = Clearance in Wistar rat at 4 mg/kg, iv administered as single dose; type: ADME, organism-based; set-up: dose 4 mg/kg, route intravenous; conditions: in vivo
# [33] = Plasma concentration in fasted Wistar rat at 4 mg/kg, po administered as single dose after 2 hrs by HPLC; type: ADME, organism-based; set-up: dose 4 mg/kg, route oral
# Plasmodium berghei [34] = assay: as §1; type: functional; set-up: scale not given: the % may be the effect or the level left; conditions: route oral
# [35] = Clearance in Wistar rat at 4 mg/kg, po administered as single dose; type: ADME, organism-based; set-up: dose 4 mg/kg, route oral; conditions: in vivo
# [36] = Plasma concentration in fasted Wistar rat at 30 mg/kg, po administered as single dose after 2 hrs by HPLC; type: ADME, organism-based; set-up: dose 30 mg/kg, route oral
# Plasmodium berghei [37] = assay: Antimalarial activity as reduced parasitaemia against Plasmodium berghei NK65 infected ICR mice (Mus musculus) at 30 mg/kg peroral dose at day 4; type: functional; set-up: scale not given: the % may be the effect or the level left; conditions: route oral
# [38] = Plasma concentration in fasted Wistar rat at 30 mg/kg/day, po after 25 hrs by HPLC; type: ADME, organism-based; set-up: route oral
# [39] = Tmax in Wistar rat at 4 mg/kg, po administered as single dose; type: ADME, organism-based; set-up: dose 4 mg/kg, route oral; conditions: in vivo
smiles,measurement,setting,value
CCN(CC)CCCC(C)Nc1ccnc2cc(Cl)ccc12 (configuration not stated) [CHLOROQUINE],MSD,Plasmodium berghei [1],22.7 days
same,Activity,Plasmodium berghei [2],98.4%
same,MSD,Plasmodium berghei [3],9.6 days
same,Activity,Plasmodium berghei [4],90.6%
CCCN(CCC)c1ccc2nc3ccc(N4CCOCC4)cc3[o+]c2c1.[Cl-],Activity,Plasmodium berghei [5],95.7%
same,Activity,Plasmodium berghei [6],99.5%
same,MSD,Plasmodium berghei [7],10 days
same,MSD,Plasmodium berghei [8],18 days
CCCN(CCC)c1ccc2nc3ccc(N4CCCC4)cc3[o+]c2c1.[Cl-],Activity,Plasmodium berghei [5],95.2%
same,Activity,Plasmodium berghei [6],99.6%
same,MSD,Plasmodium berghei [7],10 days
same,MSD,Plasmodium berghei [8],14.8 days
CCCN(CCC)c1ccc2nc3ccc(N4CCCCC4)cc3[o+]c2c1.[Cl-],Activity,Plasmodium berghei [5],93.2%
same,Activity,Plasmodium berghei [6],97.6%
same,MSD,Plasmodium berghei [7],10.3 days
same,MSD,Plasmodium berghei [8],12.3 days
CCCCCN(CCCCC)c1ccc2nc3ccc(N4CCCCC4)cc3[o+]c2c1.[Cl-],Activity,Mus musculus,Toxic
CN(C)c1ccc2nc3ccc(N4CCCC4)cc3[o+]c2c1.[Cl-],Activity,Plasmodium berghei [5],95.7%
same,Activity,Plasmodium berghei [6],90.3%
same,MSD,Plasmodium berghei [7],10 days
same,MSD,Plasmodium berghei [8],7.8 days
CCN(CC)c1ccc2nc3ccc(N4CCCCC4)cc3[o+]c2c1.[Cl-],Activity,Plasmodium berghei [9],85.9%
same,IC50,Plasmodium falciparum,2.69 nM
same,Activity,Plasmodium berghei [5],95.9%
same,Vz,Rattus norvegicus [10],36.9 L/kg
same,half-life,[11],618 min
same,selectivity ratio,[12],2390
same,Activity,Plasmodium berghei [13],inactive
same,Activity,Plasmodium berghei [6],97.8%
same,Tmax,[14],58.8 min
same,half-life,[15],590 min
same,concentration at 1 h,[16],658 ng/mL
same,bioavailability,[17],60.7%
same,half-life,[18],529 min
same,Activity,Plasmodium berghei [19],76%
same,CL/F,[20],43.3 mL/min/kg
same,MSD,Plasmodium berghei [7],12.7 days
same,concentration at 10 min,[21],468 ng/mL
same,Activity,Plasmodium berghei [22],Active
same,Activity,Plasmodium berghei [23],inactive
same,concentration at 49 h,[24],583 ng/mL
same,Activity,Plasmodium berghei [25],inactive
same,Vz,Rattus norvegicus [26],38.5 L/kg
same,concentration at 1 h,[27],658 ng/mL
same,concentration at 4 h,[28],96.6 ng/mL
same,concentration at 1 h,[29],299 ng/mL
same,bioavailability,[30],89.6%
same,MSD,Plasmodium berghei [8],23.3 days
same,Vd,[31],35.3 L/kg
same,clearance,[32],44.5 mL/min/kg
same,concentration at 2 h,[33],158 ng/mL
same,Activity,Plasmodium berghei [34],90%
same,CL/F,[35],43.3 mL/min/kg
same,concentration at 2 h,[36],158 ng/mL
same,Activity,Plasmodium berghei [37],96.2%
same,concentration at 25 h,[38],420 ng/mL
same,Tmax,[39],59.4 min
CCCN(CCC)c1ccc2nc3ccc(N4CCSCC4)cc3[o+]c2c1.[Cl-],Activity,Plasmodium berghei [5],96.5%
same,Activity,Plasmodium berghei [6],68.9%
same,MSD,Plasmodium berghei [7],7 days
same,MSD,Plasmodium berghei [8],12.5 days
CN(C)c1ccc2nc3ccc(N4CCCCC4)cc3[o+]c2c1.[Cl-],Activity,Plasmodium berghei [5],96.4%
same,Activity,Plasmodium berghei [6],97.8%
same,MSD,Plasmodium berghei [7],7.6 days
same,MSD,Plasmodium berghei [8],15.5 days
[Cl-].c1cc2nc3ccc(N4CCCC4)cc3[o+]c2cc1N1CCCC1,Activity,Plasmodium berghei [5],95.4%
same,Activity,Plasmodium berghei [6],95.3%
same,MSD,Plasmodium berghei [7],8.3 days
same,MSD,Plasmodium berghei [8],8.3 days
CCCCN(CCCC)c1ccc2nc3ccc(N4CCCCC4)cc3[o+]c2c1.[Cl-],Activity,Mus musculus,Toxic
CN(C)c1ccc2nc3ccc(N4CCSCC4)cc3[o+]c2c1.[Cl-],Activity,Plasmodium berghei [5],94.5%
same,Activity,Plasmodium berghei [6],84.9%
same,MSD,Plasmodium berghei [7],11.3 days
same,MSD,Plasmodium berghei [8],9.8 days
[Cl-].c1cc2nc3ccc(N4CCCCC4)cc3[o+]c2cc1N1CCCCC1,Activity,Plasmodium berghei [5],97.2%
same,Activity,Plasmodium berghei [6],99.8%
same,MSD,Plasmodium berghei [7],11.3 days
same,MSD,Plasmodium berghei [8],16.8 days
CCCCCCN(CCCCCC)c1ccc2nc3ccc(N4CCCCC4)cc3[o+]c2c1.[Cl-],Activity,Mus musculus,Toxic
CCN(CC)c1ccc2nc3ccc(N4CCOCC4)cc3[o+]c2c1.[Cl-],Activity,Plasmodium berghei [5],90%
same,Activity,Plasmodium berghei [6],96.3%
same,MSD,Plasmodium berghei [7],13 days
same,MSD,Plasmodium berghei [8],12.3 days
CCN(CC)c1ccc2nc3ccc(N4CCSCC4)cc3[o+]c2c1.[Cl-],Activity,Plasmodium berghei [5],99.2%
same,Activity,Plasmodium berghei [6],66.3%
same,MSD,Plasmodium berghei [7],6.3 days
same,MSD,Plasmodium berghei [8],11.5 days
